Earlier results, collected in patent publication US10010648B2, “Transdermal delivery system” (Edixomed Limited, priority 2013, dated 2018).

Assays:
[1] = healthy 70 kg-adult

Row | Structure (SMILES) | pKa | generally accepted safe dosage for topical anaesthesia [1]
1 | C=CC(=O)O [acrylic acid] | 4.3 to 4.4 | –
2 | COC(=O)[C@H]1[C@@H](OC(=O)c2ccccc2)C[C@@H]2CC[C@H]1N2C [cocaine] | – | 200 mg
3 | CCN(CC)CC(=O)Nc1c(C)cccc1C [lidocaine] | – | 750 mg
4 | CCCCNc1ccc(C(=O)OCCN(C)C)cc1 [tetracaine] | – | 50 mg
